Where no end group is shown, it is not given here.
What was measured:
[1] = test system: AVP receptor on splenic lymphocyte; experiment: Binding of 3H-AVP to receptor on splenic lymphocyte membranes; parameters: species or system mouse; settings: for DPM (Mean ± SD): 300 nM 3H-AVP
Method: Membranes were prepared as previously described (Torres and Johnson [1988] supra). Freshly dissociated spleen cells were incubated on plastic at 37° C. for 1 hr to remove adherent cells. Plates were washed and non-adherent cells were incubated for an additional hour at 37° C. Washed non-adherent cells were resuspended in 50 mM Tris-HCl buffer (pH 7.4) containing 10 mM EGTA and 10 μM phenylmethylsulfonylfluoride (PMSF), which generally lysed any red blood cells in the preparation. Additional red blood cell lysis was performed using 10 mM potassium bicarbonate buffer containing 16 mM ammonium chloride and 100 μM ethylenediaminetetraacetic acid (EDTA). Cells were washed twice and sonicated on ice using a Fisher Model 300 Sonicator (Fisher Scientific, Pittsburgh, Penna.) with microprobe. Preparations were monitored microscopically and were sonicated until greater than 95% cell rupture was achieved. Sonicated preparations were centrifuged at 1000×g at 4° C. to remove debris and large particles. Supernatants were then spun at 33,000 rpm (55,000×g) at 4° C. for 45 min in a Sorvall UTD65B Ultracentrifuge (T1270 rotor) to isolate membranes. Resulting membrane preparations were resuspended in 50 mM Tris-HCl (pH 7.4) containing 10 mM MgCL2 and 10 μM PMSF, and aliquots were stored at -70° C.
Membranes (30 μg/ml) were incubated in a final volume of 200 μl with cold AVP and/or AVP-binding peptide for 20 min. prior to the addition of 300 nM ^3 H-AVP (specific activity, 70 Ci/mmol; New England Nuclear, Boston, Mass.). Binding was carried out at room temperature for 30 min., at which time samples were placed on ice to stop further binding. Membranes were washed through 0.45 μm filters (GVWP; Millipore, Bedford, Mass.) presoaked in 2% bovine serum albumin (BSA) with approximately 50× volume of ice cold reaction buffer (50 mM Tris-HCl, pH 7.4, 10 mM MgCl2, 2% BSA, 10 μM PMSF). Filters were then placed in scintillation vials and radioactivity was counted on a beta-scintillation counter.

AVP = AVP (Homo sapiens, UniProt P01185); experiment: Solid matrix binding of 3H-AVP to immobilized AVP-binding peptide; settings: 3H-AVP binding to peptide coupled to a solid matrix, room temperature 1 hr; read-out: apparent KD
Method: FIG. 1--Specific binding of ^3 H-AVP to AVP-binding peptide […] AVP-binding peptide (200 μl of a 2 mg/ml solution) was bound overnight at 4° C. onto 96-well Immulon plates (Dynatech, Alexandria, Va.). Plates were washed three times with phosphate-buffered saline containing 5% BSA and 0.1% TWEEN™ 20 (binding buffer). Remaining binding sites were bound by incubating plates at room temperature with 20 μl binding buffer/well for 2 hr. After extensive washing, cold AVP (10 μM) was added to the appropriate plates 20 min, prior to the addition of ^3 H-AVP. Solid matrix binding was carried out at room temperature for 1 hr. Plates were washed three times and counts were solubilized with 1 N NaOH. Counts were then placed in scintillation vials and counted on a beta-scintillation counter. Specific binding of ^3 H-AVP was the difference between the binding in the absence and presence of cold AVP.
Evidence for such direct interaction is provided by the binding data of FIG. 1, where ^3 H-AVP bound to the peptide coupled to a solid matrix with an apparent KD of approximately 50 nM. The binding was inhibited by excess cold AVP. We conclude that the peptide blocks AVP function through direct binding to AVP.

[2] = test system: PA helper signal for IFN production; experiment: Pressinoic acid (PA) help in IFN production in helper cell depleted spleen cell cultures; format: cell-based, mouse

For `NC(=O)CC[C@@H]1NC(=O)[C@H](Cc2ccccc2)NC(=O)[C@H](Cc2ccc(O)cc2)NC(=O)[C@@H](N)CSSC[C@@H](C(=O)N2CCC[C@H]2C(=O)N[C@@H](CCCN=C(N)N)C(=O)NCC(N)=O)NC(=O)[C@H](CC(N)=O)NC1=O` [AVP, Arginine vasopressin], the “effect on binding of 300 nM 3H-AVP to lymphocyte receptors” value ([1]; cold AVP as competitor) was “did compete and block”, the “DPM (Mean ± SD)” value ([1]; competitor 0.1 μM, none = 4,965 ± 226) was 5,265 ± 476 DPM and the “DPM (Mean ± SD)” value ([1]; competitor 1.0 μM) was 4,209 ± 150 DPM. For the same compound, the “DPM (Mean ± SD)” value ([1]; competitor 10.0 μM) was 3,621 ± 347 DPM and the “DPM (Mean ± SD)” value ([1]; competitor 100.0 μM) was 3,577 ± 167 DPM.
In the case of TMKVLTGSP [AVP-binding peptide], the Kd (AVP) is reported as ~50 nM.
In the case of pressinoic acid [PA], the IFN ([2]; Table 4, PA (10) (nm), no binding peptide) is reported as 105 ± 21 U/ml, the IFN ([2]; Table 5, PA 3 nM, no complex) is reported as < 3 U/ml and the IFN ([2]; Table 5, PA 10 nM, no complex) is reported as 185 ± 21 U/ml. It also gave an IFN ([2]; Table 5, PA 30 nM, no complex) of 250 ± 71 U/ml.

Source: patent US4950650A, “Novel arginine vasopressin-binding peptides” (University of Florida, priority 1988, dated 1990)
